Where “and” joins values, the source holds several entries; their conditions need not be identical. Equal entries are not always repeated.
Legend:
[1] = test system: WiDr human colorectal adenocarcinoma; experiment: WiDr xenograft model: growth of established WiDr human colorectal tumors in athymic nude mice (tumor volume/weight, % T/C, Fa, Combination Index); details: for Volume Decrease: vs control; for Individual Fractional Inhibition of Tumor Volume / Individual Tumor Volumes: individual animals
Experimental: Therapeutic agents, i.e. LTβR agonist and chemotherapeutic agents, were administered to athymic nude mice who had been implanted with WiDr tumor cells.
WiDr cells were obtained from the American Type Culture Collection (Manassas, Va.). Cells were grown in vitro in 90% Eagle's Minimum Essential Medium with 2 mM L-glutamine and Earle's Balanced Salt Solution (BSS) adjusted to contain 1.5 g/L sodium bicarbonate, 0.1 mM non-essential amino acids, and 1 mM sodium pyruvate plus 10% fetal bovine serum (FBS) without antibiotics (5% CO2). Bacterial cultures were performed on aliquots of the tumor homogenate preparation that was implanted into the mice to ensure that all cultures were negative for bacterial contamination at both 24 and 48 hours post implant.
When the tumors measured approximately 5 mm in length by 5 mm in width, mice were randomized to treatment and control groups. Body weight measurements were recorded twice-weekly beginning on Day 0.
Tumor measurements were determined using Vernier calipers. Tumor size measurements were recorded regularly according to the study, until the termination of the study. The formula to calculate volume for a prolate ellipsoid was used to estimate tumor volume (mm^3) from 2-dimensional tumor measurements: tumor volume (mm^3)=(length×width^2 [L×W^2])÷2. Assuming unit density, volume was converted to weight (i.e., 1 mm^3=1 mg). Tumor growth inhibition was assessed as % T/C, where T is the mean tumor weight of the treatment group and C is the mean tumor weight of the control group. […] Animals were sacrificed accordingly.
Statistical analysis of the tumor weight measurements was performed according to standard statistical methods. Mean, standard deviation (SD), and standard error of the mean (SEM) were determined for body weight and tumor weight for all dose groups at all assessments.
Antitumor efficacy was determined by comparing each treatment group's tumor volume with the control group's tumor volume. Mean tumor volume decrease was calculated as the difference between the control group and the treatment group mean tumor volume. The fractional inhibition of tumor volume, i.e., the fraction affected (Fa), was calculated by dividing the treatment group mean tumor volume decrease by the control group mean tumor volume. […] Further statistical analysis was performed accordingly.

[2] = test system: KM-20L2 human colorectal adenocarcinoma; experiment: KM-20L2 xenograft model: growth of established KM-20L2 human colorectal tumors in athymic nude mice (tumor volume/weight, % T/C, Fa, Combination Index); format: in vivo; details: for Mean Fraction Affected (Fa): Camptosar 3 mg/kg alone; for Fraction affected (Fa): Camptosar 6.0 mg/kg given separately

## COc1cccc2c1C(=O)c1c(O)c3c(c(O)c1C2=O)C[C@@](O)(C(=O)CO)C[C@@H]3O[C@H]1C[C@H](N)[C@H](O)[C@H](C)O1 [Adriamycin, adriamycin, reference compound]
[1]; Adriamycin 4 mg/kg, day 35
  Fa (fractional inhibition of tumor volume), group mean: −0.204
  Fa, individual animals: 0.033 and −0.408 and −1.391 and 0.530 and −0.660 and −0.137 and −0.379 and −0.389 and 0.251 and 0.512
  Tumor Volume, group mean: 1353.0
  Tumor volume, individual animals: 1582.5 and 2687.5 and 528.1 and 1865.5 and 1277.8 and 1550.2 and 1560.9 and 842.1 and 548.3
  Volume Decrease vs control, group mean: −229.0
[1]; Adriamycin 6 mg/kg, day 35
  Fa (fractional inhibition of tumor volume), group mean: 0.089
  Fa, individual animals: −0.295 and 0.095 and 0.380 and 0.462 and 0.198 and 0.209 and 0.057 and −0.060 and 0.522 and −0.674
  Tumor Volume, group mean: 1023.5
  Tumor volume, individual animals: 1455.4 and 696.6 and 605.1 and 901.8 and 889.3 and 1191.2 and 537.2 and 1881.7
  Volume Decrease vs control, group mean: 100.5
[1]; adriamycin 1 mg/kg to 6 mg/kg intraperitoneal, all tested doses
  Activity by NCI criteria (% T/C at or below 42): inactive
[1]; adriamycin 6 mg/kg or 4 mg/kg, day 35, separate study
  Inhibition of tumor growth: did not produce a significant inhibition
[1]; adriamycin groups, day 42 (end of study)
  Tumor growth vs vehicle control: no significant difference

## CC(=O)O[C@H]1C(=O)[C@@]2(C)[C@H]([C@H](OC(=O)c3ccccc3)[C@]3(O)C[C@H](OC(=O)[C@H](O)[C@@H](NC(=O)c4ccccc4)c4ccccc4)C(C)=C1C3(C)C)[C@]1(OC(C)=O)CO[C@@H]1C[C@@H]2O [Taxol, reference compound]
[1]; Day 34, Taxol 12.5 mg/kg
  Fa (Fraction Affected): 0.171
  Tumor Volume: 1141.1
[1]; Day 34, Taxol 18.75 mg/kg
  Fa (Fraction Affected): 0.588
  Tumor Volume: 567.5
  Volume Decrease: 808.9
[1]; Day 34, Taxol 25 mg/kg
  Fa (Fraction Affected): 0.812
  Tumor Volume: 259.1
  Volume Decrease: 1117.3
[1]; Day 34, Taxol Given Separately
  Median Effect Dose: 12.6 mg/kg
[1]; Day 34, Taxol dose, Combined (0.333:1) with huCBE11
  Median Effect Dose: 6.6 mg/kg
[1]; Day 34, Taxol 6.25
  Individual Fractional Inhibition of Tumor Volume: 0.231 and −0.036 and 0.421 and 0.375 and 0.469 and 0.157 and 0.552 and 0.284 and −0.217 and 0.168
  Individual Tumor Volumes: 1058.1 and 1425.5 and 796.7 and 860.4 and 730.5 and 1159.9 and 616.0 and 985.1 and 1675.4 and 1144.5
[1]; Day 34, Taxol 12.5
  Individual Fractional Inhibition of Tumor Volume: 0.854 and 0.191 and 0.140 and 0.037 and −0.278 and 0.170 and 0.192 and −0.130 and 0.198 and 0.336
  Individual Tumor Volumes: 201.1 and 1113.1 and 1183.1 and 1325.2 and 1759.5 and 1143.0 and 1112.7 and 1554.9 and 1104.0 and 914.1
[1]; Taxol 12.5 mg/kg, […] and 3.13 mg/kg
  Tumor growth vs vehicle control: did not differ significantly
[1]; Taxol 18.75 mg/kg, Days 21 to 34
  % T/C: below 42%
[1]; Taxol 25 mg/kg, Days 13 to 39
  % T/C: below 42%
[1]; Taxol 25 mg/kg, Days 21 to 50
  % T/C: below 42%
[1]; Taxol 12.5, 6.25 and 3.13 mg/kg, throughout the study
  % T/C: > 82%

## N.N.[Cl][Pt][Cl] [Cisplatin, cisplatin, reference compound]
[1]; Cisplatin 1 mg/kg, day 44
  Fa (fractional inhibition of tumor volume), group mean: 0.083
  Fa, individual animals: −0.478 and 0.344 and 0.025 and −0.016 and 0.140 and 0.102 and 0.222 and 0.128 and 0.098 and 0.268
  Tumor Volume, group mean: 1300.4
  Tumor volume, individual animals: 2096.4 and 930.1 and 1383.3 and 1440.7 and 1220.3 and 1274.3 and 1103.9 and 1236.7 and 1280.0 and 1038.3
  Volume Decrease vs control, group mean: 118.2
[1]; Cisplatin 2 mg/kg, day 44
  Fa (fractional inhibition of tumor volume), group mean: 0.055
  Fa, individual animals: 0.082 and −0.061 and −0.036 and 0.618 and −0.290 and −0.523 and 0.241 and 0.054 and 0.316 and 0.151
  Tumor Volume, group mean: 1340.1
  Tumor volume, individual animals: 1301.9 and 1505.3 and 1469.5 and 541.4 and 1829.8 and 2160.2 and 1076.4 and 1342.0 and 970.2 and 1204.2
  Volume Decrease vs control, group mean: 78.5
[1]; cisplatin 2 mg/kg to 0.25 mg/kg
  Activity by NCI criteria (% T/C of 42 or less): inactive
[1]; cisplatin 2 mg/kg, 1 mg/kg and 0.25 mg/kg, day 50
  Tumor growth vs saline control: did not differ significantly

## CCc1c2c(nc3ccc(OC(=O)N4CCC(N5CCCCC5)CC4)cc13)-c1cc3c(c(=O)n1C2)COC(=O)[C@]3(O)CC [Camptosar, irinotecan, reference compound]
[2]; Camptosar
  Activity by NCI criteria (% T/C at or below 42): active
[2]; Day 9
  Mean Fraction Affected (Fa): 0.098
[2]; Day 13
  Mean Fraction Affected (Fa): 0.327
[2]; Day 20
  Mean Fraction Affected (Fa): 0.593
  Fraction affected (Fa): 0.781
[2]; Day 23
  Mean Fraction Affected (Fa): 0.521
  Fraction affected (Fa): 0.759
[2]; Day 30
  Mean Fraction Affected (Fa): 0.406
  Fraction affected (Fa): 0.607
[2]; Camptosar 6 mg/kg days 13 through 51, 3 mg/kg days 13 through 48, […] days 9 through 44, separate study
  Inhibition of tumor growth vs saline control: statistically significant inhibition of tumor growth
[2]; Day 16
  Fraction affected (Fa): 0.594
[2]; Day 27
  Fraction affected (Fa): 0.701
[2]; Day 34
  Fraction affected (Fa): 0.564
[2]; Day 37
  Fraction affected (Fa): 0.495
[2]; Camptosar groups, end of day 55, separate study
  Tumor inhibition: no significant tumor inhibition
[2]; Combined (1:0.63 huCBE11:Camptosar), dose of the labelled agent in the combination, Day 13
  Median Effect Dose: 6.7 mg/kg
[2]; Combined (1:0.63 huCBE11:Camptosar), dose of the labelled agent in the combination, Day 16
  Median Effect Dose: 1.6 mg/kg
[2]; Combined (1:0.63 huCBE11:Camptosar), dose of the labelled agent in the combination, Day 20
  Median Effect Dose: 0.6 mg/kg
[2]; Combined (1:0.63 huCBE11:Camptosar), dose of the labelled agent in the combination, Day 23
  Median Effect Dose: 0.7 mg/kg
[2]; Combined (1:0.63 huCBE11:Camptosar), dose of the labelled agent in the combination, Day 27
  Median Effect Dose: 1.0 mg/kg
[2]; Combined (1:0.63 huCBE11:Camptosar), dose of the labelled agent in the combination, Day 30
  Median Effect Dose: 1.1 mg/kg
[2]; Combined (1:0.63 huCBE11:Camptosar), dose of the labelled agent in the combination, Day 34
  Median Effect Dose: 1.1 mg/kg
[2]; Combined (1:0.63 huCBE11:Camptosar), dose of the labelled agent in the combination, Day 37
  Median Effect Dose: 1.0 mg/kg
[2]; Combined (1:0.63 huCBE11:Camptosar), dose of the labelled agent in the combination, Day 41
  Median Effect Dose: 1.0 mg/kg
[2]; Given Separately, Day 13
  Median Effect Dose: 12.4 mg/kg
[2]; Given Separately, Day 16
  Median Effect Dose: 4.0 mg/kg
[2]; Given Separately, Day 20
  Median Effect Dose: 2.3 mg/kg
[2]; Given Separately, Day 23
  Median Effect Dose: 2.7 mg/kg
[2]; Given Separately, Day 27
  Median Effect Dose: 3.2 mg/kg
[2]; Given Separately, Day 30
  Median Effect Dose: 4.2 mg/kg
[2]; Given Separately, Day 34
  Median Effect Dose: 4.7 mg/kg
[2]; Given Separately, Day 37
  Median Effect Dose: 6.0 mg/kg
[2]; Given Separately, Day 41
  Median Effect Dose: 7.3 mg/kg
[1]; Camptosar 3 mg/kg, day 21
  Fa (Fraction Affected), group mean: 0.238
  Fa, individual animals: 0.336 and 0.314 and 0.078 and 0.269 and 0.245 and −0.068 and 0.513 and 0.208 and 0.093
[1]; Camptosar 6 mg/kg, day 21
  Fa (Fraction Affected), group mean: 0.441
  Fa, individual animals: 0.302 and 0.473 and 0.521 and 0.544 (2×) and 0.590 and 0.110 and 0.614 and 0.277
[1]; Camptosar 10 mg/kg, day 21
  Fa (Fraction Affected), group mean: 0.476
  Fa, individual animals: 0.464 and 0.347 and 0.575 and 0.375 and 0.573 and 0.163 and 0.516 and 0.684 and 0.648
[1]; Camptosar […] to 10 mg/kg
  Activity by NCI criteria (% T/C of 42 or less): inactive
[1]; Camptosar combined with huCBE11 (0.555:1), day 21
  Median Effect Dose: 5.7 mg/kg
[1]; Camptosar given separately, day 21
  Median Effect Dose: 9.8 mg/kg
